This note sets out measurements from patent US20240417410A1, “TRICYCLIC COMPOUNDS FOR THE TREATMENT OF CANCER” (Hoffmann-La Roche Inc., priority 2023, published 2024).

Molecules are shown by their SMILES. Bounds are passed on as bounds.

The subject of one assay is AGS cells (KRAS G12D). Put plainly: Cell viability assay (Cell Counting Kit-8, 3-day). It counts as cell-based, human. The settings on record: Homo sapiens, 72 h, 72 hrs incubation. The essentials:
(§1)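 IC50 derived by 4-parameter sigmoidal fit of CCK-8 signal (OD450−OD650, 2 h development) after 72 h compound exposure in 0.5% DMSO. Seeding density was 5,000 cells/well for NCI-H358 and 2,000 cells/well for AGS and SW620, plated overnight before dosing.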
In general terms: Tetrazolium assays rely on reduction of a dye to a coloured formazan, in cell work by metabolically active cells.

Assay [1] deals with NCI-H358 cells (KRAS G12C). Put plainly: Cell viability assay (Cell Counting Kit-8, 3-day). The format is cell-based, human. To be noted: Homo sapiens, NCI-H358, 72 h, NCI-H358, 72 hrs incubation. The essentials: as §1
The next assay has as its system SW620 cells (KRAS G12V). Put plainly: Cell viability assay (Cell Counting Kit-8, 3-day). It counts as cell-based, human. The settings on record: Homo sapiens, SW-620; SW620, 72 hrs incubation. The gist of the method:
as §1

A further assay concerns the target KRAS G12C-BRAF complex (Homo sapiens (Human), UniProt P01116+P62937, G12C). Put plainly: KRAS-BRAF with CYPA (500 nM) interaction assay (TR-FRET, Example 136). The format is biochemical. To be noted: KRAS G12C-BRAF disruption. Background: Time-resolved FRET reads energy transfer from a long-lived donor to a nearby acceptor.
The test system of assay [2] is phosphorylation of ERK, KRAS G12C in NCI-H358 cells. Put plainly: pERK inhibition assay. The format is cell-based. The settings on record: Homo sapiens, NCI-H358, 4 h. The essentials:
(§2)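 NCI-H358 (KRAS G12C), AGS (G12D) and SW620 (G12V) cells plated overnight, then treated with compound for 4 h in 0.5% DMSO. After fixing and methanol permeabilisation, phospho-ERK was detected by in-cell ELISA (HRP/TMB, OD450). IC50 from a 4-parameter sigmoidal fit.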

Assay [3] relates to phosphorylation of ERK, KRAS G12D in AGS cells. Put plainly: pERK inhibition assay. The settings on record: Homo sapiens, AGS, 4 h. The format is cell-based. The essentials: as §2
Assay [4] concerns phosphorylation of ERK, KRAS G12V in SW620. Put plainly: pERK inhibition assay. To be noted: Homo sapiens, SW-620, 4 h, SW620 cells. It counts as cell-based. The gist of the method: as §2

Sequence of KRAS G12C-BRAF complex (P01116-2 other isoform, or with tags, fused parts or gaps G12C): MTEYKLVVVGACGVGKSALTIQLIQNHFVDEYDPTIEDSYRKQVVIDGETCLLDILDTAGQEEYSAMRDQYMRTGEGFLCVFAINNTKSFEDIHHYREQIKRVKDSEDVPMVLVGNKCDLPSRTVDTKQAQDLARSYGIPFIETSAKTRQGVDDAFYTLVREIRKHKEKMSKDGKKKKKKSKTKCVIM
Sequence of KRAS G12C-BRAF complex (P62937 whole entry): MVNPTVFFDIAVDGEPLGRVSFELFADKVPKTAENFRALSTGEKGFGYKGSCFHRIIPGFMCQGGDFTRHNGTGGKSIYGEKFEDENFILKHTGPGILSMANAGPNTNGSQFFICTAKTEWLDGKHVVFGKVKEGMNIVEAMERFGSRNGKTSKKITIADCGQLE

In the case of `CO[C@@H](C)c1ncc(N2CCN(C)CC2)cc1-c1c2c3cc(cc4c3n1CC(F)(F)C4)-c1csc(n1)C[C@H](NC(=O)[C@H]1C[C@@H]1C)C(=O)N1CCC[C@H](N1)C(=O)OCC(C)(C)C2` (atropisomer, axis not shown; (M)) [Example 18, (1S,2S)-N-[(7S,13S)-23,23-difluoro-(20M)-20-[2-[(1S)-1-methoxyethyl]-5-(4-methylpiperazin-1-yl)-3-pyridyl]-17,17-dimethyl-8,14-dioxo-15-oxa-4-thia-9,21,30,31-tetrazahexacyclo[23.3.1.1^2,5.1^9,13.0^19,27.0^21,26]hentriaconta-1 (28),2,5 (31),19,25 (29),26-hexaen-7-yl]-2-methyl-cyclopropanecarboxamide], the IC50 (as a rule, the concentration needed to halve the response being measured) in the assay on AGS cells (KRAS G12D) was 54.5 nM; in assay [1] it was 18 nM; in the assay on SW620 cells (KRAS G12V) it was 2.9 nM; against KRAS G12C-BRAF complex, 14.7 nM; in assay [2] it was 16.8 nM; in assay [3], 7.7 nM. This compound also yielded a half-inhibitory concentration (IC50) in assay [4] of 7.4 nM.
Consider `CO[C@@H](C)c1ncc(N2CCN(CC(F)(F)F)CC2)cc1-c1c2c3cc(cc4c3n1CCC4)-c1csc(n1)C[C@H](NC(=O)[C@H]1C[C@@H]1C(F)F)C(=O)N1CCC[C@H](N1)C(=O)OCC(C)(C)C2` (atropisomer, axis not shown; (M)) [Example 21, (1S,2S)-2-(difluoromethyl)-N-[(7S,13S)-(20M)-20-[2-[(1S)-1-methoxyethyl]-5-[4-(2,2,2-trifluoroethyl)piperazin-1-yl]-3-pyridyl]-17,17-dimethyl-8,14-dioxo-15-oxa-4-thia-9,21,30,31-tetrazahexacyclo[23.3.1.1^2,5.1^9,13.0^19,27.0^21,26]hentriaconta-1 (28),2,5 (31),19,25 (29),26-hexaen-7-yl]cyclopropanecarboxamide], for which the IC50 amounted to 56.2 nM with AGS cells (KRAS G12D); 15.3 nM in assay [1]; 1.9 nM with SW620 cells (KRAS G12V); 15 nM against KRAS G12C-BRAF complex; 2.1 nM in assay [2]; 8.8 nM in assay [3]. The compound further displayed a 50% inhibitory concentration (IC50) in assay [4] of 1.4 nM.
Turning to `CO[C@@H](C)c1ncc(N2CCN(C)CC2)cc1-c1c2c3cc(cc4c3n1CCC4)-c1csc(n1)C[C@H](NC(=O)[C@H]1C[C@@H]1c1ccccc1)C(=O)N1CCC[C@H](N1)C(=O)OCC(C)(C)C2` (atropisomer, axis not shown; (M)) [Example 22, (1S,2S)-N-[(7S,13S)-(20M)-20-[2-[(1S)-1-methoxyethyl]-5-(4-methylpiperazin-1-yl)-3-pyridyl]-17,17-dimethyl-8,14-dioxo-15-oxa-4-thia-9,21,30,31-tetrazahexacyclo[23.3.1.1^2,5.1^9,13.0^19,27.0^21,26]hentriaconta-1 (28),2,5 (31), 19,25 (29),26-hexaen-7-yl]-2-phenyl-cyclopropanecarboxamide], the half-maximal inhibitory concentration (IC50) was determined as 14.2 nM with AGS cells (KRAS G12D); 3.1 nM in assay [1]; 0.8 nM in the assay with SW620 cells (KRAS G12V); 6.4 nM against KRAS G12C-BRAF complex; 0.6 nM in assay [2]; 3.8 nM in assay [3]. This compound had an IC50 in assay [4] of 0.7 nM.
As to `CO[C@@H](C)c1ncc(N2CCN3CCOC[C@@H]3C2)cc1-c1c2c3cc(cc4c3n1CCC4)-c1csc(n1)C[C@H](NC(=O)[C@H]1C[C@@H]1C)C(=O)N1CCC[C@H](N1)C(=O)OCC(C)(C)C2` (atropisomer, axis not shown; (M)) [Example 25, (1S,2S)-N-[(7S,13S)-(20M)-20-[5-[(9αS)-3,4,6,7,9,9a-hexahydro-1H-pyrazino[2,1-c][1,4]oxazin-8-yl]-2-[(1S)-1-methoxyethyl]-3-pyridyl]-17,17-dimethyl-8,14-dioxo-15-oxa-4-thia-9,21,30,31-tetrazahexacyclo[23.3.1.1^2,5.1^9,13.0^19,27.0^21,26]hentriaconta-1 (28),2,5 (31),19,25 (29),26-hexaen-7-yl]-2-methyl-cyclopropanecarboxamide], the IC50 in the assay with AGS cells (KRAS G12D) is 32.6 nM; in assay [1], 6.7 nM; with SW620 cells (KRAS G12V) it was 1.8 nM; against KRAS G12C-BRAF complex, 32.6 nM; in assay [2] it was 1 nM; in assay [3], 11.3 nM. The same compound gave a half-inhibitory concentration (IC50) in assay [4] of 0.8 nM.
As for `CO[C@@H](C)c1ncc(N2CCN(C)CC2)cc1-c1c2c3cc(cc4c3n1CCC4)-c1csc(n1)C[C@H](NC(=O)[C@H]1C[C@@H]1c1ccccn1)C(=O)N1CCC[C@H](N1)C(=O)OCC(C)(C)C2` (atropisomer, axis not shown; (M)) [Example 30, (1S,2S)-N-[(7S,13S)-(20M)-20-[2-[(1S)-1-methoxyethyl]-5-(4-methylpiperazin-1-yl)-3-pyridyl]-17,17-dimethyl-8,14-dioxo-15-oxa-4-thia-9,21,30,31-tetrazahexacyclo[23.3.1.1^2,5.1^9,13.0^19,27.0^21,26]hentriaconta-1 (28),2,5 (31),19,25 (29),26-hexaen-7-yl]-2-(2-pyridyl)cyclopropanecarboxamide], the half-maximal inhibitory concentration (IC50) turned out to be 23.4 nM with AGS cells (KRAS G12D); 4.9 nM in assay [1]; 1.3 nM in the assay on SW620 cells (KRAS G12V); 17.2 nM at KRAS G12C-BRAF complex; 1.3 nM in assay [2]; 7.3 nM in assay [3]. In addition, the IC50 in assay [4] is less than 0.6 nM.
For `CO[C@@H](C)c1ncc(N2CCN(C)CC2)cc1-c1c2c3cc(cc4c3n1CCC4)-c1csc(n1)C[C@H](NC(=O)[C@H]1C[C@H]1C)C(=O)N1CCC[C@H](N1)C(=O)OCC(C)(C)C2` (atropisomer, axis not shown; (M)) [Example 33, (1S,2R)-N-[(7S,13S)-(20M)-20-[2-[(1S)-1-methoxyethyl]-5-(4-methylpiperazin-1-yl)-3-pyridyl]-17,17-dimethyl-8,14-dioxo-15-oxa-4-thia-9,21,30,31-tetrazahexacyclo[23.3.1.1^2,5.1^9,13.0^19,27.0^21,26]hentriaconta-1 (28),2,5 (31),19,25 (29),26-hexaen-7-yl]-2-methyl-cyclopropanecarboxamide], the half-inhibitory concentration (IC50) amounted to 100 nM in the assay with AGS cells (KRAS G12D); 32.3 nM in assay [1]; 7.4 nM in the assay with SW620 cells (KRAS G12V); 19.5 nM against KRAS G12C-BRAF complex; 8.5 nM in assay [2]; 23.1 nM in assay [3]. Moreover, the IC50 in assay [4] stood at 2.7 nM.
As to `CO[C@@H](C)c1ncc(N2CCN(C)CC2)cc1-c1c2c3cc(cc4c3n1CCO4)-c1csc(n1)C[C@H](NC(=O)[C@H]1C[C@@H]1C(F)F)C(=O)N1CCC[C@H](N1)C(=O)OCC(C)(C)C2` (atropisomer, axis not shown; (M)) [Example 34, (1S,2S)-2-(difluoromethyl)-N-[(7S,13S)-(20M)-20-[2-[(1S)-1-methoxyethyl]-5-(4-methylpiperazin-1-yl)-3-pyridyl]-17,17-dimethyl-8,14-dioxo-15,24-dioxa-4-thia-9,21,30,31-tetrazahexacyclo[23.3.1.1^2,5.1^9,13.0^19,27.0^21,26]hentriaconta-1 (28),2,5 (31), 19,25 (29),26-hexaen-7-yl]cyclopropanecarboxamide], the IC50 was 12.4 nM in the assay on AGS cells (KRAS G12D); 4.7 nM in assay [1]; 1.1 nM with SW620 cells (KRAS G12V); 31.8 nM on KRAS G12C-BRAF complex; less than 0.6 nM in assay [2]; 4.6 nM in assay [3]. Further, the IC50 in assay [4] is less than 0.6 nM.
Take `CO[C@@H](C)c1ncc(N2CCN(C)CC2)cc1-c1c2c3cc(cc4c3n1CCO4)-c1csc(n1)C[C@H](NC(=O)[C@H]1[C@@H]3COC[C@@H]31)C(=O)N1CCC[C@H](N1)C(=O)OCC(C)(C)C2` (atropisomer, axis not shown; (M)) [Example 35, (1S,5R,6r)-N-[(7S,13S)-(20M)-20-[2-[(1S)-1-methoxyethyl]-5-(4-methylpiperazin-1-yl)-3-pyridyl]-17,17-dimethyl-8,14-dioxo-15,24-dioxa-4-thia-9,21,30,31-tetrazahexacyclo[23.3.1.1^2,5.1^9,13.0^19,27.0^21,26]hentriaconta-1 (28),2,5 (31), 19,25 (29),26-hexaen-7-yl]-3-oxabicyclo[3.1.0]hexane-6-carboxamide]: the IC50 was determined as 13 nM in the assay on AGS cells (KRAS G12D); 4.3 nM in assay [1]; 1 nM in the assay on SW620 cells (KRAS G12V); 14.5 nM against KRAS G12C-BRAF complex; 1 nM in assay [2]; 4.7 nM in assay [3]. The same compound showed an IC50 in assay [4] of less than 0.6 nM.
For the compound `CO[C@@H](C)c1ncc(N2CCOCC2)cc1-c1c2c3cc(cc4c3n1CCC4)-c1csc(n1)C[C@H](NC(=O)[C@@H]1C[C@H]1C1CC1)C(=O)N1CCC[C@H](N1)C(=O)OCC(C)(C)C2` (atropisomer, axis not shown; (M)) [Example 37, (1R,2S)-2-cyclopropyl-N-[(7S,13S)-(20M)-20-[2-[(1S)-1-methoxyethyl]-5-morpholino-3-pyridyl]-17,17-dimethyl-8,14-dioxo-15-oxa-4-thia-9,21,30,31-tetrazahexacyclo[23.3.1.1^2,5.1^9,13.0^19,27.0^21,26]hentriaconta-1 (29),2,5 (31),19,25,27-hexaen-7-yl]cyclopropanecarboxamide], the IC50 amounted to 28.3 nM in the assay on AGS cells (KRAS G12D); 7.8 nM in assay [1]; 2.1 nM with SW620 cells (KRAS G12V); 20.5 nM against KRAS G12C-BRAF complex; 0.9 nM in assay [2]; 9.1 nM in assay [3]. Also, the concentration for half-maximal inhibition (IC50) in assay [4] worked out at 0.6 nM.
